The structures appear in SMILES notation. Read-outs that look alike come from different tables or passages of the source. A value given as a limit tells only on which side of the number the result lay.

The target in one test is USP16-UBD (USP16 8-185) (Homo sapiens, UniProt Q9Y5T5). The test is described as follows: ITC. The format is binding.
The target in test [1] is T1, NanoLuc-tagged HDAC6 (Homo sapiens, UniProt Q9UBN7).
T1 construct: N-terminal NanoLuc fusion in HEK293T
T1 sequence (Q9UBN7 1-1215): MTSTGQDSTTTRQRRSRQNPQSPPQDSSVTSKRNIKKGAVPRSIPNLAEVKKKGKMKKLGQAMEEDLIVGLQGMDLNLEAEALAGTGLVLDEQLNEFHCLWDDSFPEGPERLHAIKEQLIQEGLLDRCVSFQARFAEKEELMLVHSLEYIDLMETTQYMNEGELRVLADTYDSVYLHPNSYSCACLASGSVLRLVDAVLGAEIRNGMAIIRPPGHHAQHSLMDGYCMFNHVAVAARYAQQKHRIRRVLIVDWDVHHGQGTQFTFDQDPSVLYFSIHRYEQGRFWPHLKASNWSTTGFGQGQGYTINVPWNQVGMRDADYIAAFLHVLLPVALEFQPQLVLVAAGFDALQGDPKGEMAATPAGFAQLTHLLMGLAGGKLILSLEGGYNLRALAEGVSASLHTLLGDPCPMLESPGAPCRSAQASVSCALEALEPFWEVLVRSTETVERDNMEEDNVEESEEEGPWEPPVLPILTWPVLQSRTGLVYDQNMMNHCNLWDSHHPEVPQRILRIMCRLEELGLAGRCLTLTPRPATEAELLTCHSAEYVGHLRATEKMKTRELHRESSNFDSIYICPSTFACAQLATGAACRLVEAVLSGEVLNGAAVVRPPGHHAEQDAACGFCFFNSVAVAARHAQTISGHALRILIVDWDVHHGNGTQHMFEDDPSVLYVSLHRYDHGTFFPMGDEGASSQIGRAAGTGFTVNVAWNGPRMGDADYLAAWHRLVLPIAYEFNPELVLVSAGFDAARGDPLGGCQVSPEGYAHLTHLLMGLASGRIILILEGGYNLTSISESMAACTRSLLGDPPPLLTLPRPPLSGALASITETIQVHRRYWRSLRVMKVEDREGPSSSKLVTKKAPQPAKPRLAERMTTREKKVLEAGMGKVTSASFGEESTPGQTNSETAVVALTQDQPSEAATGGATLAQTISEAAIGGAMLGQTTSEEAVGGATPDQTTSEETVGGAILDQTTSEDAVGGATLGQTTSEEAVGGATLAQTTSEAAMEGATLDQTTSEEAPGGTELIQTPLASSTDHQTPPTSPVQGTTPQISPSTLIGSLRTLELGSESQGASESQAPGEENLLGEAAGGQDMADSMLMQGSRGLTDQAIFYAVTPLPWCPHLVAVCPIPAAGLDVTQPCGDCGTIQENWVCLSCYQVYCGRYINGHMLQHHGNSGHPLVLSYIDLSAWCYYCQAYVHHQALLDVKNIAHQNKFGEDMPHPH
The experiment in a line: NanoBRET displacement of HaloTag-ISG15. The format is cell-based. A general note: In BRET a luciferase serves as donor, and the signal depends on an acceptor being close.

Test [2] has as its target T2, USP16-UBD (USP16 25-185) (Homo sapiens, UniProt Q9Y5T5). The test is described as follows: SPR, steady state. It counts as binding.
A further test concerns the target T3, USP3 (Homo sapiens, UniProt Q9Y6I4).
T3 sequence (Q9Y6I4 1-520): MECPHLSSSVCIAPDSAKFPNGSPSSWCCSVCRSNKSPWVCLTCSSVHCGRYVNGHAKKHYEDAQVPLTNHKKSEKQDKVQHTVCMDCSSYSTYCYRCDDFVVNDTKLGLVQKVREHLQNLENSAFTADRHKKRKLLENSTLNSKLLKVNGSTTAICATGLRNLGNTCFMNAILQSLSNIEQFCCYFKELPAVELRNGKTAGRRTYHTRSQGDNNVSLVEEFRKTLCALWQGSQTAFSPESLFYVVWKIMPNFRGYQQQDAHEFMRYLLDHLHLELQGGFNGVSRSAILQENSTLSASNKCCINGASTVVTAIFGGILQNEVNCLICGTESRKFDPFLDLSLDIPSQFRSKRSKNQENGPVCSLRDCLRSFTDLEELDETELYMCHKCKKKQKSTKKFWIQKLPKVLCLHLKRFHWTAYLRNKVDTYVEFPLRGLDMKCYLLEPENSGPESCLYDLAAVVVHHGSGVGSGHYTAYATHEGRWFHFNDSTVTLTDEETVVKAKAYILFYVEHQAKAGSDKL
The test is described as follows: biochemical. Set-up: SPR, steady-state binding to immobilised biotinylated UBD proteins.

Another test has as its target T4, USP16-FL (USP16 1-823) (Homo sapiens, UniProt Q9Y5T5).
T4 construct: full length 1-823, pFBOH-LIC, Sf9 baculovirus, Ni-NTA and MonoQ
The experiment in a line: ubiquitin-rhodamine110 DUB assay. The format is biochemical. Conditions: […] ubiquitin-rhodamine-[…] enzyme, pH […], up to […] compound.

In another test the target is T5, NanoLuc-tagged USP16 (Homo sapiens, UniProt Q9Y5T5).
T5 construct: N-terminal NanoLuc fusion in HEK293T
The test is described as follows: NanoBRET displacement of HaloTag-ISG15. The format is cell-based. Conditions: HEK293T cells, […].

In test [3] the target is T1, NanoLuc-tagged HDAC6. The experiment in a line: NanoBRET displacement of HaloTag-ISG15. It counts as cell-based. Conditions: HEK293T cells, […].
The target of test [4] is T2, USP16-UBD (USP16 25-185). The experiment in a line: biochemical. Conditions: read-out: Negative Control KD (nM) SGC-UBD1031N. Set-up: SPR, steady-state binding to immobilised biotinylated UBD proteins.

T2 sequence (Q9Y5T5 25-185): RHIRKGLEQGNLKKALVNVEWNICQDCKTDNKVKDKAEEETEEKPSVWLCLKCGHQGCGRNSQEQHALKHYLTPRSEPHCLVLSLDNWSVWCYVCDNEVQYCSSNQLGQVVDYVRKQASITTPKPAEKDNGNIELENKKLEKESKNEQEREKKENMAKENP
Sequence of USP16-UBD (USP16 8-185) (Q9Y5T5 8-185): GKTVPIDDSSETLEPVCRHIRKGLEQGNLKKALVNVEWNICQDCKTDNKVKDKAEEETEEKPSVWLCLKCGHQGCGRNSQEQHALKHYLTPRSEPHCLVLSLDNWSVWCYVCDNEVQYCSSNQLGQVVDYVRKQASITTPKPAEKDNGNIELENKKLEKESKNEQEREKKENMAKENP
T4 sequence (Q9Y5T5 whole entry): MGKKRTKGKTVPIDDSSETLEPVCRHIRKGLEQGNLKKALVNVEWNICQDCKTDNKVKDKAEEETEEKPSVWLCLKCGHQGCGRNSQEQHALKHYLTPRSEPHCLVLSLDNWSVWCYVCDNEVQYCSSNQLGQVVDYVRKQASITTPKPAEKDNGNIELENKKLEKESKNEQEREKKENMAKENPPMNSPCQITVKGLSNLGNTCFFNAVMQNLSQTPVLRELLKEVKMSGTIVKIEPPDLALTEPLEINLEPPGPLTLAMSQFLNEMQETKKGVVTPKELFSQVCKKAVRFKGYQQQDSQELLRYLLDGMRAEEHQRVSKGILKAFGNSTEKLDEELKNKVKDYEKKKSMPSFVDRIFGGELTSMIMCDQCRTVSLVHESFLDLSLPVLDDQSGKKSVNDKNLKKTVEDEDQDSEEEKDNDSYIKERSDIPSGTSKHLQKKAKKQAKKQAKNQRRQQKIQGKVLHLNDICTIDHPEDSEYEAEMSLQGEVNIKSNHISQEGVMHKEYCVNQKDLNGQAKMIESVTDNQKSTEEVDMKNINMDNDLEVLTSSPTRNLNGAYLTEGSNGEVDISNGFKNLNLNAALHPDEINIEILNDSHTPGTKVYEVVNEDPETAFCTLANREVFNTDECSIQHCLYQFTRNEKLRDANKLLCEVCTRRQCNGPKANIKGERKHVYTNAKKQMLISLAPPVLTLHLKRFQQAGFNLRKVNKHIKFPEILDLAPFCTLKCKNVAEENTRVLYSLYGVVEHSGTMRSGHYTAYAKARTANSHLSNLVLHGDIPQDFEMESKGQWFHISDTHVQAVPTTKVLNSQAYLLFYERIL
T5 sequence (Q9Y5T5 whole entry, the tested form may be a part): as the sequence (Q9Y5T5 whole entry) above

On to `C[C@H](NC(=O)Cn1c(CCC(=O)O)nc2c(Cl)cccc2c1=O)c1c(F)cccc1F` [compound 15, (S)-3-(8-chloro-3-(2-((1-(2,6-difluorophenyl)ethyl)amino)-2-oxoethyl)-4-oxo-3,4-dihydroquinazolin-2-yl)propanoic acid], for which the Kd at USP16-UBD (USP16 8-185) is 50 nM; at USP16-UBD (USP16 25-185) [2], 48 nM; on USP3 (read-out: Probe KD (nM) SGC-UBD1031) it was more than 10000 nM. The compound also registered an IC50 on NanoLuc-tagged HDAC6 [1] of 1500 ± 200 nM.

Turning to `C[C@@H](NC(=O)Cn1c(CCC(=O)O)nc2c(Cl)cccc2c1=O)c1c(F)cccc1F` [compound 16, (R)-3-(8-chloro-3-(2-((1-(2,6-difluorophenyl)ethyl)amino)-2-oxoethyl)-4-oxo-3,4-dihydroquinazolin-2-yl)propanoic acid], the “ubiquitin-rhodamine110 DUB assay” value at USP16-FL (USP16 1-823) is listed as “the negative control shows no inhibition of DUB activity”. Also, the “NanoBRET displacement of HaloTag-ISG15” value on NanoLuc-tagged USP16 is “SGC-UBD1031N did not inhibit the interaction of HDAC6 or USP16 and ISG15”; on NanoLuc-tagged HDAC6 [3], “SGC-UBD1031N did not inhibit the interaction of HDAC6 or USP16 and ISG15”. In addition, the Kd amounted to 1770 ± 300 nM at USP16-UBD (USP16 25-185) [4] and 8700 ± 1800 nM on USP3 (read-out: Negative Control KD (nM) SGC-UBD1031N).

By Kd is commonly meant the constant that tells how readily two partners part at equilibrium. The IC50 is the concentration at which inhibition is half-maximal. Lower therefore signals higher potency.
